Test results reported in PubChem BioAssay (NCI).
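Test compounds were applied to cells in 96-well plates for 48 hours at 5 doses. TGI: concentration producing complete growth inhibition.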

Key:
Test in all cases: inhibition of tumour cell growth, NCI panel, 48 h
[1] = tested on: HS 578T breast
[2] = tested on: NCI-H226 lung
[3] = tested on: LOX IMVI melanoma
[4] = tested on: SF-295 CNS
[5] = tested on: SK-MEL-28 melanoma
[6] = tested on: OVCAR-8 ovarian
[7] = tested on: A498 renal
[8] = tested on: BT-549 breast
[9] = tested on: HCT-116 colon
[10] = tested on: SNB-75 CNS
[11] = tested on: SF-539 CNS
[12] = tested on: OVCAR-5 ovarian
[13] = tested on: NCI-H522 lung
[14] = tested on: SK-MEL-2 melanoma
[15] = tested on: A549 NSCLC
[16] = tested on: NCI-H460 lung
[17] = tested on: K-562 leukemia
[18] = tested on: IGROV1 ovarian

SMILES	TGI [1] [µM]	TGI [2] [µM]	TGI [3] [µM]	TGI [4] [µM]	TGI [5] [µM]	TGI [6] [µM]	TGI [7] [µM]	TGI [8] [µM]	TGI [9] [µM]	TGI [10] [µM]	TGI [11] [µM]	TGI [12] [µM]	TGI [13] [µM]	TGI [14] [µM]	TGI [15] [µM]	TGI [16] [µM]	TGI [17] [µM]	TGI [18] [µM]
COC(=O)Cc1c([C@H]2[C@H](CC(=O)OC)c3ccccc3N2S(=O)(=O)c2ccc(C)cc2)[nH]c2ccccc12	> 100	> 100	> 100	> 100	> 100	> 100	> 100	> 100	> 100	> 100	> 100	> 100	> 100	> 100	> 100	> 100	> 100	
O=C1c2cccc(O)c2C(=O)c2c(O)cccc21		> 100	> 100	> 100	> 100	> 100	> 100		> 100	> 100	> 100	> 100	> 100	> 100	> 100	> 100	> 100	> 100
Nc1nc(N)c2ncn(CCOC(c3ccccc3)P(=O)(O)O)c2n1 (centres undefined)		> 100	> 100	> 100	> 100	> 100	> 100		> 100	> 100	> 100	> 100	> 100	> 100	> 100	> 100		> 100
ClCC[N-]CC[N-]CCCl.ClCC[N-]CC[N-]CCCl.[O-][Cl+3]([O-])([O-])O.[Zn+2]		> 100	57.2	> 100	> 62.4	45.4	> 100		> 62.8	44.1	> 67.8	46.6	27.3	41.4	> 100	> 71.2	68.7	> 62.3
C[n+]1c2ccccc2c(CNCC(=O)O)c2ccccc21		15.5		17.2		7.84	7.43		1.3	20.9	5.19	28.5	0.307	12.6	13.1	14.8	11.1	22.6
O=C(Nc1ccc(Cl)cc1)c1cc([N+](=O)[O-])ccc1O		12.6	19.5	30.4	15.6	30.7	11.2		20.8	20.2	> 34	81.6	5.85	11.3	> 96.2	> 79.8	13.1	69.5
CC(=O)C1C(=O)C(=O)N(c2ccc([N+](=O)[O-])cc2)C1=O (centres undefined)	> 100	> 100	> 100	> 100	> 100	> 100		> 100	> 100	> 100	> 100	> 100	> 100	> 100	> 100	> 100		> 100
CSc1ccc(NC(=O)C2c3[nH]c4ccccc4c3C3CCC(C(C)(C)C)CC3C2C(=O)O)cc1 (centres undefined)		33.1		38.5	60.5	28.8	35.4		27.5	37.9	37.7		37.4		30.9		> 100	51.8
CC1=NN2C(c3ccc([N+](=O)[O-])cc3)=CSC2=NC(C)(C)C1		> 100	> 100	> 100	> 100	> 100	> 100		> 100	> 100	> 100	> 100	> 100	> 100	> 100	> 100	> 100	> 100
Cc1c2ccncc2c(C)c2c1[nH]c1ccc(Oc3ccccc3)cc12		37.6	4	12.6	9.67	3.48	11.4			8.73	3.13	3.94			4.8		4.01	42.4
C[C@]12CC[C@H](O)CC1=CC[C@@H]1C2CC[C@]2(C)C(=O)NC(=O)CC12 (some centres undefined)		> 100	> 100	> 100	> 100	> 100	> 100		> 100	> 100	> 100	> 100	> 100	> 100	> 100	> 100	92.1	> 100
COC(=O)CC(C(C(=O)OC)C(=O)OC)N1C(=O)OC(c2ccccc2)C1c1ccccc1 (centres undefined)		> 100	> 100	> 100	> 100	> 100	> 100		> 100	> 100	> 100	> 100	> 100	> 100	> 100	> 100	> 100	> 100
COc1cc2c(oc(=O)c3cc4cc([Si](C)(C)C)oc4c(OC)c32)c2cccc(O)c12		> 100	> 100	> 100	> 100	> 100	> 100		> 100	> 100	> 100	> 100	> 100	> 100	> 100	> 100	> 100	> 100
CCN(CC)C(=S)SCC(=O)Nc1nc2c(s1)CCCC2		> 100	> 100	> 100	> 100	> 100	> 100		> 100	> 100	> 100	> 100	65.3	> 100	> 100	> 100		> 100
COc1ccc(-c2csc(Cc3nc4c(Br)cc(Br)cc4c(=O)n3-c3ccc(OC)cc3)n2)cc1	> 100	> 100	> 100	> 100	> 100	> 100	> 100	> 100	> 100	> 100		> 100		> 100	> 100	> 100		> 100
CCOC(=O)CSC1NC(C(=O)OC)CC1OC (centres undefined)	> 100			> 100	> 100	> 100	> 100	> 100	> 100	> 100		> 100	> 100	> 100	> 100	> 100	> 100	> 100
COc1ccc(OC)c(NC(=O)C(=O)CC(=O)c2sc(-n3nc(-c4ccccc4)cc3-c3ccccc3)nc2C)c1		> 100	> 100	> 100		> 100	> 100		> 100	> 100	> 100	> 100	> 100	> 100	> 100	> 100	> 100	> 100
C=CCCCN1CCCC(C)C1=S (centres undefined)		> 100	> 100	> 100	> 100	> 100	> 100		> 100	> 100	> 100	> 100	> 100	> 100	> 100	> 100	> 100	> 100
CC1(C)Cc2c(oc3ncnc(N)c23)CS1		> 100	> 100	> 100		> 100			> 100	> 100	> 100	> 100	> 100	> 100	> 100	> 100	> 100	> 100
CC(C)(C)[C@H]1CO[C@]2(c3ccccc3)[C@@H]3C[C@@H]3C(=O)N12		> 100	> 100	> 100	> 100	> 100				> 100	> 100	> 100	> 100	> 100	> 100	> 100		> 100
N#CC(C#N)=c1c2ccccc2c(=C(C#N)C#N)c2ccccc12	47.7	38.2	40.5		48.3	42.7	54.9	65	34.4	39.8		43.3		32.9	> 100	63.6	> 100	30.2
S=C(N/N=C/c1ccccn1)N1CC2CCC(CC2)C1	30.6	1.53	12.4	11.1	17.4	0.252	2.93	12.5	3.88	0.868	0.287	18	3.64	15.5	14.2	0.207		
CN1C(=O)C(C(=O)Nc2ccccn2)C2C[C@@]1(C)Oc1ccccc12 (some centres undefined)	> 100	> 100	> 100	> 100	> 100	> 100	> 100	> 100	> 100	> 100		> 100	> 100	> 100	> 100	> 100	> 100	> 100
